Measurements from article PMC11303713, “Allosteric inhibition of CFTR gating by CFTRinh-172 binding in the pore” (Nature Communications, 2024).

Experiment: Visible precipitates in perfusion solution
Type: physicochemical
Text: Point 7 (poorly deﬁned dose-response curves): The authors response would seem to explain why points may be missing from the left side of the plot (Fig 4e), but I don't think it explains their absence from the right side. The data points for the three mutants roughly deﬁne a straight line. In order to have a meaningful ﬁt that can be used to extract a reliable IC50, one needs to sample higher and lower concentrations than the authors have done.
While I understand that there may be technical limitations that make this difficult or impossible, I think scientiﬁc rigor still has to be maintained. If the experiment cannot be done properly due to technical limitations, that is ﬁne, but low quality data should not be interpreted and presented. […]
and include in a publication. I also still think that the way the authors are reporting signiﬁcant ﬁgures this is not good practice, though this aspect is more of a stylistic/precision issue.
In Fig. 4e, we added 25 nM and 10 µM data points for WT-CFTR, and the newly added data […]
added 10 µM data point for M348K-CFTR, so that for all tested mutants, the maximum [Inh-172] is 10 µM (All related ﬁgures in the main text are updated). We could not increase [Inh-172] further because precipitates were seen gushing out of our perfusion tubing at concentrations ≥ 20 µM. […]

SMILES: O=C(O)c1ccc(/C=C2\SC(=S)N(c3cccc(C(F)(F)F)c3)C2=O)cc1 [Inh-172, CFTRinh-172]
- concentration at which precipitates were seen: ≥ 20 µM
